Laboratory results published in patent US20240041042A1, “1-(PYRIDYL)-5-AZINYLPYRAZOLE DERIVATIVES, AND THEIR USE FOR CONTROL OF UNDESIRED PLANT GROWTH” (Bayer Aktiengesellschaft, priority 2020, published 2024).

Assays:
Format in all cases: in vivo
Avena fatua (AVEFA) = experiment: Pre-emergence herbicidal action against AVEFA; conditions: 320 g/ha, visual scoring after about 3 weeks vs untreated controls
Procedure, shortened: (§1)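 Seeds sown in pots and covered with soil; WP or EC formulations sprayed onto the soil surface at 600 l/ha water with 0.5% additive, at 320 g/ha or lower. Greenhouse growth for about 3 weeks, then visual scoring as % effect against untreated controls (100% = plants dead).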

Lolium rigidum (LOLRI) = experiment: Pre-emergence herbicidal action against LOLRI
Procedure, shortened: as §1

[1] = system: Matricaria inodora (MATIN); experiment: Pre-emergence herbicidal action against MATIN
Procedure, shortened: as §1

[2] = system: Pharbitis purpurea (PHBPU); experiment: Pre-emergence herbicidal action against PHBPU
Procedure, shortened: as §1

[3] = system: Polygonum convolvulus (POLCO); experiment: Pre-emergence herbicidal action against POLCO
Procedure, shortened: as §1

[4] = system: Verconica persica (VERPE); experiment: Pre-emergence herbicidal action against VERPE
Procedure, shortened: as §1

[5] = system: Polygonum convolvulus (POLCO); experiment: Post-emergence herbicidal action against POLCO
Procedure, shortened: (§2)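 Doses of 320 g/ha or lower, suffixes a, b and c marking different dosages, were applied post-emergence at the one-leaf stage in 600 l/ha water with 0.5% additive. Damage was assessed visually after about 3 weeks in the greenhouse.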

Setaria viridis (SETVI) = experiment: Post-emergence herbicidal action against SETVI
Procedure, shortened: as §2

[6] = system: Verconica persica (VERPE); experiment: Post-emergence herbicidal action against VERPE
Procedure, shortened: as §2

Viola tricolor (VIOTR) = experiment: Post-emergence herbicidal action against VIOTR
Procedure, shortened: as §2

SMILES | Pre-emergence action against AVEFA in % (Avena fatua (AVEFA)) | Pre-emergence action against LOLRI in % (Lolium rigidum (LOLRI); dosage 320 g/ha) | Pre-emergence action against MATIN in % ([1]; dosage 80 g/ha) | Pre-emergence action against MATIN in % ([1]; dosage 320 g/ha) | Pre-emergence action against PHBPU in % ([2]; dosage 80 g/ha) | Pre-emergence action against PHBPU in % ([2]; dosage 320 g/ha) | Pre-emergence action against POLCO in % ([3]; dosage 80 g/ha) | Pre-emergence action against POLCO in % ([3]; dosage 320 g/ha) | Pre-emergence action against VERPE in % ([4]; dosage 80 g/ha) | Pre-emergence action against VERPE in % ([4]; dosage 320 g/ha) | Post-emergence action against POLCO in % ([5]; dosage 80 g/ha) | Post-emergence action against POLCO in % ([5]; dosage 320 g/ha) | Post-emergence action against SETVI in % (Setaria viridis (SETVI); dosage 320 g/ha) | Post-emergence action against VERPE in % ([6]; 320 g/ha, VERPE) | Post-emergence action against VERPE in % ([6]; dosage 80 g/ha) | Post-emergence action against VIOTR in % (Viola tricolor (VIOTR); 80 g/ha) | Post-emergence action against VIOTR in % (Viola tricolor (VIOTR); 320 g/ha) | Pre-emergence action against LOLRI in % (Lolium rigidum (LOLRI); dosage 80 g/ha) | Post-emergence action against SETVI in % (Setaria viridis (SETVI); dosage 80 g/ha)
CCOC(=O)COc1nn(-c2nc(F)ccc2F)c(-c2cncc(F)c2)c1Br [Example I-193] | 90% | 90% | 90% | 90% | 80% | 90% | 80% | 100% | 80% | 90% | 80% | 80% | 90% | 80% | 80% | 80% | 90% | – | –
COCCOC(=O)COc1nn(-c2ccccn2)c(-c2ccc(F)nc2)c1Br [Example I-96] | 90% | 100% | – | 100% | 90% | 90% | 90% | 90% | 90% | 90% | 80% | 80% | 90% | 90% | 80% | 90% | 90% | 90% | 90%
COC(=O)[C@@H](C)Oc1nn(-c2ncccc2F)c(-c2ccc(F)nc2)c1I [Example I-341] | 90% | 100% | 90% | 100% | – | 90% | 90% | 100% | – | 100% | 80% | 80% | 80% | 90% | 90% | 80% | 80% | 100% | 80%
COC(=O)C(C)NC(=O)[C@@H](C)Oc1nn(-c2ccccn2)c(-c2cncc(F)c2)c1Br (some centres unmarked) [Example I-190] | 90% | 100% | 90% | 90% | 90% | 90% | 90% | 90% | 80% | 100% | 80% | 80% | 80% | 90% | 80% | 80% | 90% | 100% | 80%
